Assay results: paper PMC6199309, “A therapeutic approach to pantothenate kinase associated neurodegeneration” (Nature Communications, 2018)

Columns and labels:
CSNK1G2 = target: T1, CSNK1G2 (Homo sapiens, UniProt P78368); assay: KINOMEscan; type: binding; settings: read-out: %Ctrl @ 10000nM
T1 construct: purchased DiscoverX KINOMEscan

SRPK1 = target: T2, SRPK1 (Homo sapiens, UniProt Q96SB4); assay: KINOMEscan; type: binding; settings: read-out: %Ctrl @ 10000nM
T2 construct: purchased DiscoverX KINOMEscan

[1] = target: T3, JAK2(JH1domain-catalytic) (Homo sapiens, UniProt O60674); assay: KINOMEscan; type: binding; settings: read-out: %Ctrl @ 10000nM
T3 construct: JAK2(JH1domain-catalytic); purchased DiscoverX KINOMEscan

YSK1 = target: T4, YSK1 (Homo sapiens, UniProt O00506); assay: KINOMEscan; type: binding; settings: read-out: %Ctrl @ 10000nM
T4 construct: purchased DiscoverX scanMAX; host or cells: E. coli BL21-derived host (T7 phage) or HEK-293

MINK = target: T5, MINK (Homo sapiens, UniProt Q8N4C8); assay: KINOMEscan; type: binding; settings: read-out: %Ctrl @ 10000nM
T5 construct: purchased DiscoverX KINOMEscan
T5 sequence (Q8N4C8 whole entry): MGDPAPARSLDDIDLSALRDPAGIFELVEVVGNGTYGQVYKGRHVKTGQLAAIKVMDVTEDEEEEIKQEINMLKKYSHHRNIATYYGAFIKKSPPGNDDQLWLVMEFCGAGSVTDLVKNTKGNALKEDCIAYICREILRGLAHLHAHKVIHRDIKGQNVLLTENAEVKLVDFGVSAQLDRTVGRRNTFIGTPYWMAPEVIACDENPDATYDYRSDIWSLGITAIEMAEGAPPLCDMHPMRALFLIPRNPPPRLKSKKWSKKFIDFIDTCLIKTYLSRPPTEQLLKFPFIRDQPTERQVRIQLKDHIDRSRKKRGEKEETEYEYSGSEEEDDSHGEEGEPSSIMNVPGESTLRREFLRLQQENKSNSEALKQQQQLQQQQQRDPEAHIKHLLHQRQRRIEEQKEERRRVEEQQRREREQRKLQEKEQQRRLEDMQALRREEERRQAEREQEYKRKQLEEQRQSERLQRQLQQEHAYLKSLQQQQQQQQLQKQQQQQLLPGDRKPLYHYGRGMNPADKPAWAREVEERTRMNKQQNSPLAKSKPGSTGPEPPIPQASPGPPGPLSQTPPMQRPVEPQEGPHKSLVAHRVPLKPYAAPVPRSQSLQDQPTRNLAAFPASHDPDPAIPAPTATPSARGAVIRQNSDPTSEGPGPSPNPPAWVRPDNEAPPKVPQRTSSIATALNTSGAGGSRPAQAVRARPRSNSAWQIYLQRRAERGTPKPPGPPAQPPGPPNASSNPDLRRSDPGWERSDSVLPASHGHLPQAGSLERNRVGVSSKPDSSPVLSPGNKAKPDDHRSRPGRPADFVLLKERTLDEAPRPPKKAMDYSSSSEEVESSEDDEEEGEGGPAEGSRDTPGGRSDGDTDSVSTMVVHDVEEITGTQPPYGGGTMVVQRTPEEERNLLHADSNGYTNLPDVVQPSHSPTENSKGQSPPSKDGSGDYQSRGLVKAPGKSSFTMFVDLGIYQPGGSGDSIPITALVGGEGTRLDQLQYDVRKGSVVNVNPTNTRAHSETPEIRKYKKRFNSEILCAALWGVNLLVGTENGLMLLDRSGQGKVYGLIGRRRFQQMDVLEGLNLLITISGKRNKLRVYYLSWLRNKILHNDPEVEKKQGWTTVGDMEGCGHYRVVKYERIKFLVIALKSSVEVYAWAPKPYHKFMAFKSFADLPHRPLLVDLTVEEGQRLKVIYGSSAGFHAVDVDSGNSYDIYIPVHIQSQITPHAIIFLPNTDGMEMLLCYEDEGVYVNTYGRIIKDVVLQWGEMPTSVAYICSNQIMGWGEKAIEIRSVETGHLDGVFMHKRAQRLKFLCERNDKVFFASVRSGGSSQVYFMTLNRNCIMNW

DYRK2 = target: T6, DYRK2 (Homo sapiens, UniProt Q92630); assay: KINOMEscan; type: binding; settings: read-out: %Ctrl @ 10000nM
T6 construct: purchased DiscoverX KINOMEscan
T6 sequence (Q92630 whole entry): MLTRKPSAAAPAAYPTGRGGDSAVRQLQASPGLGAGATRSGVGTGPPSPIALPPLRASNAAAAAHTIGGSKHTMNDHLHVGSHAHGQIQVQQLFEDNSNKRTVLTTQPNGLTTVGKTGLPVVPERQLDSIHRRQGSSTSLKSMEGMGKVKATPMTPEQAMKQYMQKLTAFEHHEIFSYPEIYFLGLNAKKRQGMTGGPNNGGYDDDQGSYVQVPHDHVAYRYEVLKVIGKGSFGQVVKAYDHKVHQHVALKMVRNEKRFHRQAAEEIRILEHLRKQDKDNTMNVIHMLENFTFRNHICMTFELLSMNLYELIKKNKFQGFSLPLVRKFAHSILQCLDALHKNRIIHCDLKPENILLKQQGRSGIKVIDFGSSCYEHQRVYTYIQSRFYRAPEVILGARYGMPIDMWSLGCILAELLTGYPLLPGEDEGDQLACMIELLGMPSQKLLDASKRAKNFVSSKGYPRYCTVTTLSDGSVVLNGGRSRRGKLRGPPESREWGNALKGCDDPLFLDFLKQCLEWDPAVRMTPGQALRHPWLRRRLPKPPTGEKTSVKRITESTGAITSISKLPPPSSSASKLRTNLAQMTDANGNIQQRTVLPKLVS

[2] = target: T7, ABL1(F317I)-nonphosphorylated (Homo sapiens, UniProt P00519, F317I); assay: KINOMEscan; type: binding; settings: read-out: %Ctrl @ 10000nM
T7 construct: purchased DiscoverX KINOMEscan

ADCK3 = target: T8, ADCK3 (Homo sapiens, UniProt Q8NI60); assay: KINOMEscan; type: binding; settings: read-out: %Ctrl @ 10000nM
T8 construct: purchased DiscoverX KINOMEscan

GSK3B = target: T9, GSK3B (Homo sapiens, UniProt P49841); assay: KINOMEscan; type: binding; settings: read-out: %Ctrl @ 10000nM
T9 construct: purchased DiscoverX KINOMEscan

PIK3CD = target: T10, PIK3CD (Homo sapiens, UniProt O00329); assay: KINOMEscan; type: binding; settings: read-out: %Ctrl @ 10000nM
T10 construct: purchased DiscoverX KINOMEscan

STK35 = target: T11, STK35 (Homo sapiens, UniProt Q8TDR2); assay: KINOMEscan; type: binding; settings: read-out: %Ctrl @ 10000nM
T11 construct: DNA tag for qPCR (T7 phage fusion or DNA label); purchased DiscoverX KdELECT; host or cells: E. coli BL21-derived (T7 phage) or HEK-293

LCK = target: T12, LCK (Homo sapiens, UniProt P06239); assay: KINOMEscan; type: binding; settings: read-out: %Ctrl @ 10000nM
T12 construct: purchased DiscoverX KINOMEscan

CDK3 = target: T13, CDK3 (Homo sapiens, UniProt Q00526); assay: KINOMEscan; type: binding; settings: read-out: %Ctrl @ 10000nM
T13 construct: purchased DiscoverX KINOMEscan
T13 sequence (Q00526 whole entry): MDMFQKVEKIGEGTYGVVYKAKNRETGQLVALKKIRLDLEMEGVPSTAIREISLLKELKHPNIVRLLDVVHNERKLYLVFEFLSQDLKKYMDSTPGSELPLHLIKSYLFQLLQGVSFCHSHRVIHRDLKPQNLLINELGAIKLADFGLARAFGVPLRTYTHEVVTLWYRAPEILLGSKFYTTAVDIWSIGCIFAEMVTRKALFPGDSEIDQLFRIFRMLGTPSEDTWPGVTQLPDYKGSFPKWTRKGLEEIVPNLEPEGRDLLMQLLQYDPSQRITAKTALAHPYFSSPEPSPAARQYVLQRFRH

BTK = target: T14, BTK (Homo sapiens, UniProt Q06187); assay: KINOMEscan; type: binding; settings: read-out: %Ctrl @ 10000nM
T14 construct: purchased DiscoverX KINOMEscan

LATS1 = target: T15, LATS1 (Homo sapiens, UniProt O95835); assay: KINOMEscan; type: binding; settings: read-out: %Ctrl @ 10000nM
T15 construct: purchased DiscoverX KINOMEscan

MTOR = target: T16, MTOR (Homo sapiens, UniProt P42345); assay: KINOMEscan; type: binding; settings: read-out: %Ctrl @ 10000nM
T16 construct: purchased DiscoverX KINOMEscan

Plasma stability = type: in vitro ADME; settings: rat, read-out: Plasma Stability T1/2 (converted)
PFTAIRE2 = target: T17, PFTAIRE2 (Homo sapiens, UniProt Q96Q40); assay: KINOMEscan; type: binding; settings: read-out: %Ctrl @ 10000nM
T17 construct: purchased DiscoverX KINOMEscan

MYO3A = target: T18, MYO3A (Homo sapiens, UniProt Q8NEV4); assay: KINOMEscan; type: binding; settings: read-out: %Ctrl @ 10000nM
T18 construct: purchased DiscoverX KINOMEscan

GAK = target: T19, GAK (Homo sapiens, UniProt O14976); assay: KINOMEscan; type: binding; settings: read-out: %Ctrl @ 10000nM
T19 construct: purchased DiscoverX KINOMEscan

MAP4K5 = target: T20, MAP4K5 (Homo sapiens, UniProt Q9Y4K4); assay: KINOMEscan; type: binding; settings: read-out: %Ctrl @ 10000nM
T20 construct: purchased DiscoverX KINOMEscan

PIK3C2B = target: T21, PIK3C2B (Homo sapiens, UniProt O00750); assay: KINOMEscan; type: binding; settings: read-out: %Ctrl @ 10000nM
T21 construct: purchased DiscoverX KINOMEscan

DRAK1 = target: T22, DRAK1 (Homo sapiens, UniProt Q9UEE5); assay: KINOMEscan; type: binding; settings: read-out: %Ctrl @ 10000nM
T22 construct: purchased DiscoverX KINOMEscan
T22 sequence (Q9UEE5 whole entry): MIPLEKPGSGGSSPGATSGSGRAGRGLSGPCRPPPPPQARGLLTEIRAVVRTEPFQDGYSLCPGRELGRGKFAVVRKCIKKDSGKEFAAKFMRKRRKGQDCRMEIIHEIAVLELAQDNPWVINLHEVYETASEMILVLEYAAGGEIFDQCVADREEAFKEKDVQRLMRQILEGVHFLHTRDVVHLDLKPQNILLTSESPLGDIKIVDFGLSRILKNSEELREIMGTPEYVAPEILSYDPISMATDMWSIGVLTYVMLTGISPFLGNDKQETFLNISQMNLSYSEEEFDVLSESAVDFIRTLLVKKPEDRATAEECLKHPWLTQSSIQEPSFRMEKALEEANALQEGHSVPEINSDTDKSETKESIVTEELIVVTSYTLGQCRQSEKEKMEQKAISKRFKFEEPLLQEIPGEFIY

STK36 = target: T23, STK36 (Homo sapiens, UniProt Q9NRP7); assay: KINOMEscan; type: binding; settings: read-out: %Ctrl @ 10000nM
T23 construct: purchased DiscoverX KINOMEscan

OSR1 = target: T24, OSR1 (Homo sapiens, UniProt O95747); assay: KINOMEscan; type: binding; settings: read-out: %Ctrl @ 10000nM
T24 construct: purchased DiscoverX KINOMEscan

S6K1 = target: T25, S6K1 (Homo sapiens, UniProt P23443); assay: KINOMEscan; type: binding; settings: read-out: %Ctrl @ 10000nM
T25 construct: purchased DiscoverX KINOMEscan

CDKL1 = target: T26, CDKL1 (Homo sapiens, UniProt Q00532); assay: KINOMEscan; type: binding; settings: read-out: %Ctrl @ 10000nM
T26 construct: purchased DiscoverX KINOMEscan

CDK8 = target: T27, CDK8 (Homo sapiens, UniProt P49336); assay: KINOMEscan; type: binding; settings: read-out: %Ctrl @ 10000nM
T27 construct: purchased DiscoverX KINOMEscan

TIE1 = target: T28, TIE1 (Homo sapiens, UniProt P35590); assay: KINOMEscan; type: binding; settings: read-out: %Ctrl @ 10000nM
T28 construct: purchased DiscoverX KINOMEscan

[3] = target: T29, ABL1(Q252H)-phosphorylated (Homo sapiens, UniProt P00519, Q252H); assay: KINOMEscan; type: binding; settings: read-out: %Ctrl @ 10000nM
T29 construct: purchased DiscoverX KINOMEscan

SLK = target: T30, SLK (Homo sapiens, UniProt Q9H2G2); assay: KINOMEscan; type: binding; settings: read-out: %Ctrl @ 10000nM
T30 construct: purchased DiscoverX KINOMEscan

PIM3 = target: T31, PIM3 (Homo sapiens, UniProt Q86V86); assay: KINOMEscan; type: binding; settings: read-out: %Ctrl @ 10000nM
T31 construct: purchased DiscoverX KINOMEscan

PIK3CB = target: T32, PIK3CB (Homo sapiens, UniProt P42338); assay: KINOMEscan; type: binding; settings: read-out: %Ctrl @ 10000nM
T32 construct: purchased DiscoverX KINOMEscan

PRKCH = target: T33, PRKCH (Homo sapiens, UniProt P24723); assay: KINOMEscan; type: binding; settings: read-out: %Ctrl @ 10000nM
T33 construct: purchased DiscoverX KINOMEscan

ROCK2 = target: T34, ROCK2 (Homo sapiens, UniProt O75116); assay: KINOMEscan; type: binding; settings: read-out: %Ctrl @ 10000nM
T34 construct: purchased DiscoverX KINOMEscan
T34 sequence (O75116 whole entry): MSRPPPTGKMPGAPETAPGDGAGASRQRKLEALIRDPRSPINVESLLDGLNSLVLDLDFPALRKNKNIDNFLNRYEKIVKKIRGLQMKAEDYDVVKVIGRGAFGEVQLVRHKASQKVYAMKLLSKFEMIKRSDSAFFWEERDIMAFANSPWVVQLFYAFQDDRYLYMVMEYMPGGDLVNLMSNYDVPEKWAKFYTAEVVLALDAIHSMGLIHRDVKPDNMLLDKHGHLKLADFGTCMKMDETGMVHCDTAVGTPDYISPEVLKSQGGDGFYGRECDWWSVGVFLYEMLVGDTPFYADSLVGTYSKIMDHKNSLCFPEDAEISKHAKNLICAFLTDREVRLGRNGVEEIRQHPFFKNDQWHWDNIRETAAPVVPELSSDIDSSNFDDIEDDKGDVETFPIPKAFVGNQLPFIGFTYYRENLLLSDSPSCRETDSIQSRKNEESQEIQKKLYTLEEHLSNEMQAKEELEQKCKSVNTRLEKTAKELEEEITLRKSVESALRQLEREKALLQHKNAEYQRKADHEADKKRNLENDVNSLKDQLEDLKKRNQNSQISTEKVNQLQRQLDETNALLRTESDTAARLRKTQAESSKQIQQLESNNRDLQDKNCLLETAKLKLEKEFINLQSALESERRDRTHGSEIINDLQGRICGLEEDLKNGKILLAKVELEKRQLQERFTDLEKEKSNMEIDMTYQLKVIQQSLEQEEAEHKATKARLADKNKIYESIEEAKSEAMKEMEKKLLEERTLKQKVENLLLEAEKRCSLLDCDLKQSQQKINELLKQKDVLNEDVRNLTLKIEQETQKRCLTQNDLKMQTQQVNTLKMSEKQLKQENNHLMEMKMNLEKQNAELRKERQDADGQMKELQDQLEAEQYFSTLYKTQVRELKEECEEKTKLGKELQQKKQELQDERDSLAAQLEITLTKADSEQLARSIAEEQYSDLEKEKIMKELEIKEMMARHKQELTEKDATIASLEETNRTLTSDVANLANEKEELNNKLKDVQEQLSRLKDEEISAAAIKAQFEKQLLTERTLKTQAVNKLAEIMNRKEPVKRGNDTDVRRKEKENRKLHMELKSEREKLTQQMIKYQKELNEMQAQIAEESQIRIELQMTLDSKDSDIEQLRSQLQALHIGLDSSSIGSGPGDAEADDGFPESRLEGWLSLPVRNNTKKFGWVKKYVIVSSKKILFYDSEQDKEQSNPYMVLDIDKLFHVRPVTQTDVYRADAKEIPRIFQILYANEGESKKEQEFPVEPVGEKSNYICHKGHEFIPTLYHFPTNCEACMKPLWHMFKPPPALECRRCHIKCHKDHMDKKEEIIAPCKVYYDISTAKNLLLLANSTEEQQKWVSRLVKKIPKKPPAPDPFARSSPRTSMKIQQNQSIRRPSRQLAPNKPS

DCAMKL3 = target: T35, DCAMKL3 (Homo sapiens, UniProt Q9C098); assay: KINOMEscan; type: binding; settings: read-out: %Ctrl @ 10000nM
T35 construct: purchased DiscoverX KINOMEscan

TAOK2 = target: T36, TAOK2 (Homo sapiens, UniProt Q9UL54); assay: KINOMEscan; type: binding; settings: read-out: %Ctrl @ 10000nM
T36 construct: purchased DiscoverX KINOMEscan

ERK2 = target: T37, ERK2 (Homo sapiens, UniProt P28482); assay: KINOMEscan; type: binding; settings: read-out: %Ctrl @ 10000nM
T37 construct: purchased DiscoverX KINOMEscan

PAMPA = settings: PAMPA
PLK3 = target: T38, PLK3 (Homo sapiens, UniProt Q9H4B4); assay: KINOMEscan; type: binding; settings: read-out: %Ctrl @ 10000nM
T38 construct: purchased DiscoverX KINOMEscan

EGFR(T790M) = target: T39, EGFR(T790M) (Homo sapiens, UniProt P00533, T790M); assay: KINOMEscan; type: binding; settings: read-out: %Ctrl @ 10000nM
T39 construct: purchased DiscoverX KINOMEscan

CSNK1A1L = target: T40, CSNK1A1L (Homo sapiens, UniProt Q8N752); assay: KINOMEscan; type: binding; settings: read-out: %Ctrl @ 10000nM
T40 construct: purchased DiscoverX KINOMEscan
T40 sequence (Q8N752 whole entry): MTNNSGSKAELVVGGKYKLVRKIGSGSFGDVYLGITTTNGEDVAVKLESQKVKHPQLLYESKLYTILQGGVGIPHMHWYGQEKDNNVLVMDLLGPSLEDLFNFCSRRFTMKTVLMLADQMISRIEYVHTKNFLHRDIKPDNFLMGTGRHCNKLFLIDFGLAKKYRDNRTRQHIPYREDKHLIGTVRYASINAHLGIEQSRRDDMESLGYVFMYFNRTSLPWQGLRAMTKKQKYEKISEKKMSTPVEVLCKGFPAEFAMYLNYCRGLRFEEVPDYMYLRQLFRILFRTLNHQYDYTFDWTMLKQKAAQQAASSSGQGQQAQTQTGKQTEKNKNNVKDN

T1 sequence (P78368 whole entry): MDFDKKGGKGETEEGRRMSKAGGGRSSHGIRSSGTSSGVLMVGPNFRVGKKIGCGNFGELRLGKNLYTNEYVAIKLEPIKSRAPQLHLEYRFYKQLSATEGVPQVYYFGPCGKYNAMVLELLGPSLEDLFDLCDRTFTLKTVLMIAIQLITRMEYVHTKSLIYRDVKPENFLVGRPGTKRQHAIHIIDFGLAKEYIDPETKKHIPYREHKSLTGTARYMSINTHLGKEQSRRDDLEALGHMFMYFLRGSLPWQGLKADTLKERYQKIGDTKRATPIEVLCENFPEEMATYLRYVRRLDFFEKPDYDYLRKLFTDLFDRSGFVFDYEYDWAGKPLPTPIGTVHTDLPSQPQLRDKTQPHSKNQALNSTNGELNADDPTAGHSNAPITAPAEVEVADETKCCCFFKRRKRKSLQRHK

Q: What does the source list for CC(C)c1ccc(CC(=O)N2CCN(c3ccc(C#N)nn3)CC2)cc1 [PZ-2891, 6-(4-(2-(4-isopropylphenyl)acetyl)piperazin-1-yl)pyridazine-3-carbonitrile]?
A: remaining binding at 10 µM (CSNK1G2): 62%; remaining binding at 10 µM (SRPK1): 100%; remaining binding at 10 µM [1]: 88%; remaining binding at 10 µM (YSK1): 100%; remaining binding at 10 µM (MINK): 74%; remaining binding at 10 µM (DYRK2): 97%; remaining binding at 10 µM [2]: 77%; remaining binding at 10 µM (ADCK3): 100%; remaining binding at 10 µM (GSK3B): 74%; remaining binding at 10 µM (PIK3CD): 89%; remaining binding at 10 µM (STK35): 0.2%; remaining binding at 10 µM (LCK): 98%; remaining binding at 10 µM (CDK3): 97%; remaining binding at 10 µM (BTK): 94%; remaining binding at 10 µM (LATS1): 86%; remaining binding at 10 µM (MTOR): 68%; half-life (Plasma stability): > 3000 min; remaining binding at 10 µM (PFTAIRE2): 99%; remaining binding at 10 µM (MYO3A): 68%; remaining binding at 10 µM (GAK): 93%; remaining binding at 10 µM (MAP4K5): 100%; remaining binding at 10 µM (PIK3C2B): 100%; remaining binding at 10 µM (DRAK1): 99%; remaining binding at 10 µM (STK36): 84%; remaining binding at 10 µM (OSR1): 87%; remaining binding at 10 µM (S6K1): 96%; remaining binding at 10 µM (CDKL1): 74%; remaining binding at 10 µM (CDK8): 83%; remaining binding at 10 µM (TIE1): 85%; remaining binding at 10 µM [3]: 74%; remaining binding at 10 µM (SLK): 93%; remaining binding at 10 µM (PIM3): 58%; remaining binding at 10 µM (PIK3CB): 65%; remaining binding at 10 µM (PRKCH): 92%; remaining binding at 10 µM (ROCK2): 100%; remaining binding at 10 µM (DCAMKL3): 84%; remaining binding at 10 µM (TAOK2): 99%; remaining binding at 10 µM (ERK2): 86%; PAMPA; Avg Pe (PAMPA): 413 10-6 cm/s; remaining binding at 10 µM (PLK3): 78%; remaining binding at 10 µM (EGFR(T790M)): 78%; remaining binding at 10 µM (CSNK1A1L): 100%
